Source: US8445510B2, “Fused bicyclic kinase inhibitors” (OSI Pharmaceuticals, LLC, priority 2011, dated 2013)

Molecular target: c-MET (Homo sapiens, UniProt P08581)
Assay: MET cell mechanistic assay (MKN45), phosphorylated MET ELISA
Assay type: cell-based
Settings: MKN45 cell line; inhibition of phosphorylated MET; 4 hours incubation; at least duplicate experiments; read-out: MET mech IC50
Description: The cellular activity of the compounds of the present invention against c-MET may be determined by the following procedure. MKN45 cells were plated in Falcon 3072 96-well plates in growth media (RPMI, 10% FBS, 1% L-glutamine) at a density of 5000 cells/well and incubated at 37° C., 5% CO2 overnight. The following day, one-tenth volume of a 10× concentration of compounds was added to the wells in a 6-point dilution series. The dilutions series was composed of an initial 1:5 dilution in DMSO, followed by a 1:10 dilution in growth media, for a final DMSO concentration on cells of 0.5%. Control wells were treated with 0.5% DMSO. The typical range of dilution was 10 μM to 3 nM. Once compound was added to the cells, plates were incubated for 4 hours at 37° C., 5% CO2. Plates were then washed in PBS, and lysed in triton-based lysis buffer. Lysates were transferred to a precoated capture plate made by Biosource (Cat # KHO0281). The phosphorylated MET levels were measured by incubating with a rabbit polyclonal antibody against phosphorylated MET ([pYpYpY1230/1234/1235]) followed by an anti-rabbit antibody conjugated to HRP. Signal was measured on a Wallac Victor plate reader at 450 nm. The DMSO signal of the control wells was defined as 100% and the percent of inhibition of phosphorylated MET was expressed as percent of control. IC50 values were determined from the percent of control data using a standard four-parameter model.
The IC50 values of exemplary compounds of the present invention determined in a MET cell mechanistic assay using the MKN45 cell line according to the procedures described herein in at least duplicate experiments are abbreviated as follows and are shown in Table 1: A, IC50≦0.05 μM; B, 0.05 μM<IC50≦0.2 μM; C, 0.2 μM<IC50≦1 μM; D, IC50>1 μM; ND, not determined. The Example # of Table 1 corresponds to the compound example number as illustrated in the Examples section.
Treatment of this cell line with a selective c-MET inhibitor led to induction of apoptosis and inhibition of proliferation, whereas non-MET-amplified cell lines were not affected [Smolen et al., Proc. Natl. Acad. Sci. USA, 103(7):2316-2321 (2006)]. This cell line is thus “driven” by c-MET, and antiproliferative effects correlate very well with the inhibition of c-MET phosphorylation so that the cell proliferation IC50, values can be used as surrogate for the c-MET cell mechanistic IC50, values. Under the assay conditions described herein, the IC50 values correlate nearly 1:1.

Sequence of c-MET (P08581 25-1390): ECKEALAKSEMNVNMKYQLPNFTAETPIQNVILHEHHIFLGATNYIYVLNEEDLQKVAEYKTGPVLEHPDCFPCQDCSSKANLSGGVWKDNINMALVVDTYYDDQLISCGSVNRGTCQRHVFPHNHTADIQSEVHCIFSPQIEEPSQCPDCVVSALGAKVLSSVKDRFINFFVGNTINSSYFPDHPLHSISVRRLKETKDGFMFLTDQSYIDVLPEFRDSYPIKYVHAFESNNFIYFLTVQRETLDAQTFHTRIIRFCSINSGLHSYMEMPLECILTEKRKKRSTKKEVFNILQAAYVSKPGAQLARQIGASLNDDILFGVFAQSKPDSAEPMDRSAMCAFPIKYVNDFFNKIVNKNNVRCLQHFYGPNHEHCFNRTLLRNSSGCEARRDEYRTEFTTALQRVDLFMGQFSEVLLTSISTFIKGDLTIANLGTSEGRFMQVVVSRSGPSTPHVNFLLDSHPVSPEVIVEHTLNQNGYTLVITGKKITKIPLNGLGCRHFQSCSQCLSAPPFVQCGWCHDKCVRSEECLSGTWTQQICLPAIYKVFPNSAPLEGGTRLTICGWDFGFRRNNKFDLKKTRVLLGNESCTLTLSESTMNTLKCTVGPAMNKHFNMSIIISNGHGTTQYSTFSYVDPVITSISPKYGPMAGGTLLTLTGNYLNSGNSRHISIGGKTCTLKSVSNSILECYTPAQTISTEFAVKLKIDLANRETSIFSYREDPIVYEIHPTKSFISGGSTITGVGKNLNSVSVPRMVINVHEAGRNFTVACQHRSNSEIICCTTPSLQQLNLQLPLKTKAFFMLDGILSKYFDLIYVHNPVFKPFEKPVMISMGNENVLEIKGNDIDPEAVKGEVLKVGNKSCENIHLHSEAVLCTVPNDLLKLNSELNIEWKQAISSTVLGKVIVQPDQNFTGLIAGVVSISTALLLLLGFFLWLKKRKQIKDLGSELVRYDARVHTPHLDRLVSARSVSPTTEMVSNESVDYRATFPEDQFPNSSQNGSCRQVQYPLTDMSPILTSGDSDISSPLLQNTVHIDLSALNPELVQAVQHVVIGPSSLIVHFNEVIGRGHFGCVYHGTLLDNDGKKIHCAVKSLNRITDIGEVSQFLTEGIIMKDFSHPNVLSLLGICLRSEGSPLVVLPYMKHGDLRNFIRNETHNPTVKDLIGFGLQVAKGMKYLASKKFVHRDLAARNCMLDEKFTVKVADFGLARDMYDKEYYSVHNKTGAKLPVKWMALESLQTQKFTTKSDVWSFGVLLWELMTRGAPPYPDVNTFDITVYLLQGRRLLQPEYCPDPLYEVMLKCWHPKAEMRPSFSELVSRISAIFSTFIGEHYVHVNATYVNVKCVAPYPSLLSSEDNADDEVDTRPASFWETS

| SMILES | IC50 |
| --- | --- |
| CC(=O)N1CCC(n2ncc(-c3cnc4[nH]cc([C@H](C)c5c(OC(F)F)ccc(F)c5Cl)c4c3)c2C)CC1 [Example 97, 1-{4-[4-(3-{(1S)-1-[2-Chloro-6-(difluoromethoxy)-3-fluorophenyl]ethyl}-1H-pyrrolo[2,3-b]pyridin-5-yl)-5-methyl-1H-pyrazol-1-yl]piperidin-1-yl}ethanone] | ≤ 0.05 µM |
| COc1ccc(F)c(Cl)c1[C@@H](C)c1c[nH]c2ncc(-c3cn([C@H]4CC[C@H](O)CC4)nc3OC)cc12 [Example 99, trans-4-(4-{3-[(1S)-1-(2-chloro-3-fluoro-6-methoxyphenyl)ethyl]-1H-pyrrolo[2,3-b]pyridin-5-yl}-3-methoxy-1H-pyrazol-1-yl)cyclohexanol] | ≤ 0.05 µM |
| COc1ccc(F)c(Cl)c1[C@@H](C)c1c[nH]c2ncc(-c3cnn([C@H]4CC[C@H](O)CC4)c3C)cc12 [Example 27, trans-4-(4-{3-[(1S)-1-(2-Chloro-3-fluoro-6-methoxyphenyl)ethyl]-1H-pyrrolo[2,3-b]pyridin-5-yl}-5-methyl-1H-pyrazol-1-yl)cyclohexanol] | ≤ 0.05 µM |
| Cc1c(-c2cnc3[nH]cc([C@H](C)c4c(OC(F)F)ccc(F)c4Cl)c3c2)cnn1C1CCNCC1 [Example 96, 3-{(1S)-1-[2-Chloro-6-(difluoromethoxy)-3-fluorophenyl]ethyl}-5-[5-methyl-1-(piperidin-4-yl)-1H-pyrazol-4-yl]-1H-pyrrolo[2,3-b]pyridine] | ≤ 0.05 µM |
| Cc1c(-c2cnc3[nH]cc([C@H](C)c4c(OC(F)F)ccc(F)c4Cl)c3c2)cnn1[C@H]1CC[C@H](O)CC1 [Example 74, trans-4-[4-(3-{(1S)-1-[2-Chloro-6-(difluoromethoxy)-3-fluorophenyl]ethyl}-1H-pyrrolo[2,3-b]pyridin-5-yl)-5-methyl-1H-pyrazol-1-yl]cyclohexanol] | ≤ 0.05 µM |

Now from value to molecule:

| IC50 | SMILES |
| --- | --- |
| ≤ 0.05 µM | Cc1c(-c2cnc3[nH]cc([C@H](CF)c4c(OC(F)F)ccc(F)c4Cl)c3c2)cnn1[C@H]1CC[C@H](O)CC1 [Example 124, trans-4-[4-(3-{(1S)-1-[2-chloro-6-(difluoromethoxy)-3-fluorophenyl]-2-fluoroethyl}-1H-pyrrolo[2,3-b]pyridin-5-yl)-5-methyl-1H-pyrazol-1-yl]cyclohexanol] |
| ≤ 0.05 µM | C[C@H](c1c(OC(F)F)ccc(F)c1Cl)c1c[nH]c2ncc(-c3cnc(N4CCC(O)CC4)n3C)cc12 [Example 125, 1-[5-(3-{(1S)-1-[2-Chloro-6-(difluoromethoxy)-3-fluorophenyl]ethyl}-1H-pyrrolo[2,3-b]pyridin-5-yl)-1-methyl-1H-imidazol-2-yl]piperidin-4-ol] |
| ≤ 0.05 µM | COc1nn([C@H]2CC[C@H](O)CC2)cc1-c1cnc2[nH]cc([C@H](C)c3c(OC(F)F)ccc(F)c3Cl)c2c1 [Example 100, trans-4-[4-(3-{(1S)-1-[2-chloro-6-(difluoromethoxy)-3-fluorophenyl]ethyl}-1H-pyrrolo[2,3-b]pyridin-5-yl)-3-methoxy-1H-pyrazol-1-yl]cyclohexanol] |
| ≤ 0.05 µM | C[C@H](c1c(OC(F)F)ccc(F)c1Cl)c1c[nH]c2ncc(-c3cnc([C@H]4CC[C@H](O)CC4)n3C)cc12 [Example 126, trans-4-[5-(3-{(1S)-1-[2-Chloro-6-(difluoromethoxy)-3-fluorophenyl]ethyl}-1H-pyrrolo[2,3-b]pyridin-5-yl)-1-methyl-1H-imidazol-2-yl]cyclohexanol] |
| 0.2 to 1 µM | Cc1c(-c2cnc3[nH]cc([C@@H](CF)c4c(OC(F)F)ccc(F)c4Cl)c3c2)cnn1[C@H]1CC[C@H](O)CC1 [Example 123, trans-4-[4-(3-{(1R)-1-[2-chloro-6-(difluoromethoxy)-3-fluorophenyl]-2-fluoroethyl}-1H-pyrrolo[2,3-b]pyridin-5-yl)-5-methyl-1H-pyrazol-1-yl]cyclohexanol] |
| ≤ 0.05 µM | CCOc1ccc(F)c(Cl)c1[C@@H](C)c1c[nH]c2ncc(-c3cnn([C@H]4CC[C@H](O)CC4)c3C)cc12 [Example 103, trans-4-(4-{3-[(1S)-1-(2-Chloro-6-ethoxy-3-fluorophenyl)ethyl]-1H-pyrrolo[2,3-b]pyridin-5-yl}-5-methyl-1H-pyrazol-1-yl)cyclohexanol] |
| ≤ 0.05 µM | COc1ccc(F)c(Cl)c1[C@@H](CF)c1c[nH]c2ncc(-c3cnn([C@H]4CC[C@H](O)CC4)c3C)cc12 [Example 121, trans-4-(4-{3-[(1S)-1-(2-Chloro-3-fluoro-6-methoxyphenyl)-2-fluoroethyl]-1H-pyrrolo[2,3-b]pyridin-5-yl}-5-methyl-1H-pyrazol-1-yl)cyclohexanol] |
